Laboratory results: the supplement of paper PMC11208160

assay: recombinant barcode read abundance after kanamycin selection (control-corrected) (log10(CPM+1)); higher = more efficient recombination; sequences stand for … in AGTGCAGAGAAAATCGGCCAGTTTTCTCTGCCTGCAGTCCGCATGCCGT…AGATTTATGCAGCGGACTGCCTTTCTCCCAAAGTGATAAACCGGACAGTATCATGGACCGGTTTTCCCGGTAATCCGTATTTGCAAGGTTGGTTTCACT; site = the 11-nt target
Outline: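 Two replicates per condition were plated: chloramphenicol/ampicillin LB agar for the control, and chloramphenicol/ampicillin/kanamycin with 0.1 mM IPTG for selection. The pooled E. coli screen behind them paired targets with IS621 bridge RNA target-binding loops. Recombination efficiency is expressed from averaged, control-corrected barcode counts per million at recombinant junctions, as log10(CPM+1).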
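Note: IS621 recombinase and bridge RNA in Escherichia coli cells.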

In order of falling “recombinant barcode read abundance (log10)” value:
1. GCACACACTTGGGTTCTAACCTGTTGCTG (site GCACACACTCA)  2.5
2. ACGAGCTCTTGGGTTCTAACCTGTTGCTG (site ACGAGCTCTCA)  1.84
3. GCTCAGTCTTGGGTTCTAACCTGTTGCCT (site GCTCAGTCTAG)  1.78
4. TTACCAACTTGGGTTCTAACCTGTTGCCT (site TTACCAACTAG)  1.61
5. TCCCACTCTTGGGTTCTAACCTGTTGCCT (site TCCCACTCTAG)  1.56
6. CTACGAACTTGGGTTCTAACCTGTTGCTG (site CTACGAACTCA)  1.53
7. AACCAGCCTTGGGTTCTAACCTGTTGCCT (site AACCAGCCTAG)  1.33
8. CGGTGTCCTTGGGTTCTAACCTGTTGCTA (site CGGTGTCCTTA)  1.33
9. GAAAAGTCTTGGGTTCTAACCTGTTGCTG (site GAAAAGTCTCA)  1.28
10. ACCCTATCTTGGGTTCTAACCTGTTGCTT (site ACCCTATCTAA)  0.944
11. CTCACACCTTGGGTTCTAACCTGTTGCCT (site CTCACACCTAG)  0.931
12. GGAAGCCCTTGGGTTCTAACCTGTTGCTA (site GGAAGCCCTTA)  0.694
13. GCTGAGGCTTGGGTTCTAACCTGTTGCCA (site GCTGAGGCTTG)  0.636
14. AGGTCTGCTTGGGTTCTAACCTGTTGCCT (site AGGTCTGCTAG)  0.58
15. AGCTTAGCTTGGGTTCTAACCTGTTGCCT (site AGCTTAGCTCG)  0.577
16. AGTCGATCTTGGGTTCTAACCTGTTGCTT (site AGTCGATCTAA)  0.496
17. TAATTAGCTTGGGTTCTAACCTGTTGCCT (site TAATTAGCTAG)  0.435
18. CGAGCTCCTTGGGTTCTAACCTGTTGCAT (site CGAGCTCCTAG)  0.425
19. GAGGCTTCTTGGGTTCTAACCTGTTGCCT (site GAGGCTTCTAG)  0.42
20. ACTAGAACTTGGGTTCTAACCTGTTGCAA (site ACTAGAACTTT)  0.402
21. CTATGGACTTGGGTTCTAACCTGTTGCCT (site CTATAGACTAG)  0.398
22. TCAGAATCTTGGGTTCTAACCTGTTGCCT (site TCAGGATCTAG)  0.371
23. AGGGTCGCTTGGGTTCTAACCTGTTGCCT (site CACAGTCCTTA)  0.344
24. AGTGTCGCTTGGGTTCTAACCTGTTGCGG (site AGTTTCGCTCC)  0.301
25. AGTAGGACTTGGGTTCTAACCTGTTGCCT (site AGTAGGACTAG)  0.242
26. CAAAGGCCTTGGGTTCTAACCTGTTGCCT (site CAAGGGCCTAG)  0.228
27. CCGTCAACTTGGGTTCTAACCTGTTGCCT (site CCGTCAACTAG)  0.226
28. CTACACCCTTGGGTTCTAACCTGTTGCTT (site CTACATCCTAA)  0.22
29. GGGGCACCTTGGGTTCTAACCTGTTGCCT (site GGGGCACCTAA)  0.216
30. TCTTAGGCTTGGGTTCTAACCTGTTGCGT (site TCCTAGGCTGC)  0.21
31. CATGGGACTTGGGTTCTAACCTGTTGCAT (site GGCAAACCTCC)  0.202
32. TTAGAGACTTGGGTTCTAACCTGTTGCCT (site TTAGAGTCTAG)  0.195
33. CAAACTCCTTGGGTTCTAACCTGTTGCTT (site CAAACTCCTAA)  0.191
34. AGGCGTCCTTGGGTTCTAACCTGTTGCCA (site AGGCGTCCTAG)  0.181
35. GGGCTTACTTGGGTTCTAACCTGTTGCCT (site GGGCTTACTAG)  0.178
36. CTACGAACTTGGGTTCTAACCTGTTGCTG (site CTACGTACTCA)  0.142
37. AGTTGCACTTGGGTTCTAACCTGTTGCCT (site AGTTACACTAG)  0.14
38. TGTGTCCCTTGGGTTCTAACCTGTTGCCT (site TGCGTCCCTAG)  0.139
39. TACTATACTTGGGTTCTAACCTGTTGCCT (site TACTATCCTAG)  0.131
40. GGTCCGTCTTGGGTTCTAACCTGTTGCAT (site AGTCGGTCTAT)  0.127
41. AAGGAGACTTGGGTTCTAACCTGTTGCCT (site AAAGGGACTAG)  0.116
42. ATTCAGACTTGGGTTCTAACCTGTTGCGG (site ATCCAGGCTCC)  0.113
43. TCAGGTACTTGGGTTCTAACCTGTTGCCT (site ACAGGTACTAG)  0.0983
44. GAGACGACTTGGGTTCTAACCTGTTGCCG (site GAGATGACTCC)  0.0966
45. ACATTGCCTTGGGTTCTAACCTGTTGCCT (site ACCTTGCCTAG)  0.0938
46. GCTATGTCTTGGGTTCTAACCTGTTGCCT (site GGTATGTCTAA)  0.0851
47. GTAACTGCTTGGGTTCTAACCTGTTGCCT (site GTAAGTGCTAG)  0.084
48. GTTTCTTCTTGGGTTCTAACCTGTTGCCT (site GCTTCTTCTAG)  0.0824
49. TAGCTCACTTGGGTTCTAACCTGTTGCGG (site TAGCACACTCC)  0.0805
50. TATTGATCTTGGGTTCTAACCTGTTGCCT (site TAGTGATCTAG)  0.0784
51. GACATTCCTTGGGTTCTAACCTGTTGCTT (site CTATGAACTTG)  0.0749
52. CATAAGCCTTGGGTTCTAACCTGTTGCCT (site CATCAGCCTAG)  0.07
53. GAGAATCCTTGGGTTCTAACCTGTTGCGT (site GAGTACCCTAC)  0.0692
54. TTAGTAGCTTGGGTTCTAACCTGTTGCCT (site TTAGTGGCTAG)  0.0632
55. GAAATGGCTTGGGTTCTAACCTGTTGCCT (site GAAAAGGCTAG)  0.0553
56. GTCTTATCTTGGGTTCTAACCTGTTGCCT (site GTCTAATCTAG)  0.0535
57. GCCATTCCTTGGGTTCTAACCTGTTGCAT (site AGAGCCACTTA)  0.0467
58. GACATATCTTGGGTTCTAACCTGTTGCTT (site ACTGGTCCTCC)  0.0369
59. TACTGAGCTTGGGTTCTAACCTGTTGCCT (site CACTGAGCTAG)  0.0308
60. ACGAGCTCTTGGGTTCTAACCTGTTGCTG (site CCGCGCTCTCA)  0.0264
61. AGGTTCCCTTGGGTTCTAACCTGTTGCTA (site AGGTTCCCTAA)  0.0211
62. CCGTGGCCTTGGGTTCTAACCTGTTGCTT (site CCGTGGACTAG)  0.0169
63. CTAAAACCTTGGGTTCTAACCTGTTGCCT (site ATAAAACCTAG)  0.0167
64. TGGCTATCTTGGGTTCTAACCTGTTGCCT (site CGGCTATCTAG)  0.00906
65. ATAACCTCTTGGGTTCTAACCTGTTGCCT (site GAGGTGCCTCT)  0
66. GGCTAGCCTTGGGTTCTAACCTGTTGCCT (site TGTTAGCCTAG)  0
